Legend:
Format in all cases: cell-based
[1] = test system: cleaved CASPASE 3 and PARP; assay: Western blots of apoptosis markers in BE(2)-C cells; settings: ATRA 5 days, dose-dependent
Method: (§1) Western Blots. Cell lysates were prepared using RIPA buffer. Protein concentration was determined using the Pierce BCA assay (Thermo Fisher Scientific). For electrophoresis, equal amounts of cell lysate were resolved by SDS-PAGE and transferred to Immun-Blot PVDF membranes (Bio-Rad Laboratories). Membranes were blocked and probed with primary antibodies to specific proteins. Bound antibodies were detected with secondary antibodies conjugated with horseradish peroxidase (HRP) visualized by enhanced chemiluminescent (ECL) substrate (Pierce).

[2] = test system: GAP43, NSE and β-TUBULIN III; assay: Western blots of differentiation markers in BE(2)-C cells; settings: ATRA 5 days, dose-dependent
Method: as §1

BE(2)-C cells [3] = assay: Cell Viability Assay (CellTiter-Glo)
Method: Cell Viability Assay. Cells were plated in 96-well format and treated as specified. After culturing for 120 h, cell viability was determined using the CellTiter-Glo Luminescent Cell Viability Assay (Promega).

PCNA and Ki67 = assay: Western blots of cell proliferation markers in BE(2)-C cells; settings: ATRA 5 days, dose-dependent
Method: as §1

BE(2)-C cells [4] = assay: High-content screen: detection and quantification of neurite outgrowth; settings: ATRA vs carrier (DMSO), 5 days
BE(2)-C cells [5] = assay: as above; parameters: key: neurite length normalized to the mean of its plate; settings: 25 nM miRNA mimic, 4 days transfection, normalized to plate mean
Method: FIG. 2A-2C. HCS screening of miRNA mimics identifies miRNAs that induce neurite outgrowth in BE(2)-C cells. (A-B) 2,500 cells were reverse-transfected with 25 nM miRNA mimics in 96-well plates. After 4 days transfection, relative neurite lengths were quantified as above. (A) The distribution of post-normalized neurite length measurements (grey histogram) for individual miRNA mimics from the screen and the fitted Gamma distribution curve (␣=3.27, ┘=0.444) (B) Correlation between two independent neurite length measurements for one library plate. Cells were transfected with 25 nM mimics in two independent 96-well plates. Normalized neurite lengths were measured as above. Correlation of neurite length between the two plates was analyzed using two-tailed Pearson Correlation with p<0.05 considered significant. (C) The distribution of the neurite lengths for untreated BE(2)-C cells. 2,500 Cells were plated into each well in 96 well plates. After 4 days of culture, neurite lengths were analyzed as above. Shown are the neurite length distribution histogram, the empirical density curve, and the fitted Gamma distribution curve (␣=30.23, ␣=0.033).
Detection and Quantification of Neurite Outgrowth. Cells were plated and treated in 96-well plates. For detecting neurite outgrowth, cells were placed into ZOOM IncuCyte Imaging System (Essen BioScience) and cell images were taken under 20× microscopic magnification. For detecting neurite outgrowth in a time-dependent manner, cell images were taken every 6 h. The neurite lengths associated with each treatment were calculated using the neurite definition defined for each specific cell line using the NeuroTrack system (Essen BioScience).
Analysis of HCS Data. The relative neurite length associated with cells in each well on the screen plates was determined as above. In order to allow for plate-to-plate comparison, neurite length associated with each well in each plate was first internally normalized to the mean of the corresponding plate, and multiple screen plates were then aggregated together to generate the neurite length distribution. The data were then further analyzed to determine the distribution of the unaffected cells as described below, and to identify differentiation-inducing miRNA mimics.
Statistical Analysis. For HCS, p-value for neurite length associated with each miRNA mimic was evaluated by assuming the distribution of neurite lengths follows Gamma distribution, and false Discovery Rate (FDR) was determined by Benjamini-Hochberg correction method for multiple tests (Benjamin, Journal of the Royal Statistical Society Series B (Methodological), 1995, 57(1):12). […] For all other conditions, the statistical significance for each treatment was determined using t-test by comparing the treatment group with control, with p<0.05 considered statistically significant.

Compound | Neurite length (mean ± SD) (BE(2)-C cells [5]) | other results
CC1=C(/C=C/C(C)=C/C=C/C(C)=C/C(=O)O)C(C)(C)CCC1 [ATRA, all-trans retinoic acid] |  | Expression of apoptosis markers (cleaved CASPASE 3, PARP) [1]: increases expression of apoptosis markers; Expression of neuroblastoma differentiation markers (GAP43, NSE, β-TUBULIN III) [2]: stimulates expression of neuroblastoma differentiation markers; Cell viability (BE(2)-C cells [3]; 5 days, dose-dependent): decreases cell viability; Expression of cell proliferation markers (PCNA, Ki67) (PCNA and Ki67): inhibits expression of cell proliferation markers; Relative neurite length compared to control (BE(2)-C cells [4]): significantly increases the relative neurite length
CC1=C(/C=C/C(C)=C/C=C/C(C)=C\C(=O)O)C(C)(C)CCC1 [cis-RA, 13-cis retinoic acid] |  | Cell viability when reaching plateau (BE(2)-C cells [3]; treated for 5 days): 42.6±3.7%
hsa-miR-34a-5p: miRNA mimic, mature sequence UGGCAGUGUCUUAGCUGGUUGU (SEQ ID NO: 7) (UGGCAGUGUCUUAGCUGGUUGU(2); as printed in the source, key not given here) | 9.49 ± 3.18 | 
hsa-miR-34b-Sp: miRNA mimic, mature sequence UAGGCAGUGUCAUUAGCUGAUUG (SEQ ID NO: 12) (listed as RNA, chemistry not given here) | 8.41 ± 2.16 | 
hsa-miR-103a-3p: miRNA mimic, mature sequence AGCAGCAUUGUACAGGGCUAUGA (SEQ ID NO: 8) (AGCAGCAUUGUACAGGGCUAUGA(3); as printed in the source, key not given here) | 9.43 ± 2.67 | 
hsa-miR-107: miRNA mimic, mature sequence AGCAGCAUUGUACAGGGCUAUCA (SEQ ID NO: 13) (AGCAGCAUUGUACAGGGCUAUCA(3); as printed in the source, key not given here) | 7.60 ± 1.98 | 
hsa-miR-135b-5p: miRNA mimic, mature sequence UAUGGCUUUUCAUUCCUAUGUGA (SEQ ID NO: 6) (listed as RNA, chemistry not given here) | 14.02 ± 4.29 | 
hsa-miR-137: miRNA mimic, mature sequence UUAUUGCUUAAGAAUACGCGUAG (SEQ ID NO: 16) (listed as RNA, chemistry not given here) | 7.03 ± 1.36 | 
hsa-miR-449a: miRNA mimic, mature sequence UGGCAGUGUAUUGUUAGCUGGU (SEQ ID NO: 10) (UGGCAGUGUAUUGUUAGCUGGU(2); as printed in the source, key not given here) | 9.16 ± 2.47 | 
hsa-miR-449b-5p: miRNA mimic, mature sequence AGGCAGUGUAUUGUUAGCUGGC (SEQ ID NO: 15) (AGGCAGUGUAUUGUUAGCUGGC(2); as printed in the source, key not given here) | 7.40 ± 1.85 | 
hsa-miR-450b-3p: miRNA mimic, mature sequence UUGGGAUCAUUUUGCAUCCAUA (SEQ ID NO: 9) (listed as RNA, chemistry not given here) | 9.26 ± 2.64 | 
hsa-miR-3714: miRNA mimic, mature sequence GAAGGCAGCAGUGCUCCCCUGU (SEQ ID NO: 14) (listed as RNA, chemistry not given here) | 7.56 ± 1.91 | 
hsa-miR-3937: miRNA mimic, mature sequence ACAGGCGGCUGUAGCAAUGGGGG (SEQ ID NO: 17) (listed as RNA, chemistry not given here) | 6.93 ± 1.05 | 
